Measured values published in publication PMC4627826, “Synthesis and Biological Evaluation of Novel Gigantol Derivatives as Potential Agents in Prevention of Diabetic Cataract” (PLoS ONE, 2015).
Like-named read-outs stand apart in the source and are kept apart here.

Columns and labels:
aldose reductase (AR) = biological target: T1, aldose reductase (AR) (Homo sapiens, UniProt P15121); assay: AR inhibition assay (NADPH absorbance decrease at 340 nm, DL-glyceraldehyde substrate); type: biochemical; conditions: for IC50: mean ± SD (n = 3), NA = no activity
T1 construct: purchased Prospec-TanyTechnogene Ltd. (Israel)
Description: AR was purchased from Prospec-TanyTechnogene Ltd. (Israel). AR activity was evaluated as previously described. Briefly, the reaction mixture was composed of enzyme solution ([…], 20 μL), NADPH (0.104 mmol·L^-1, 50 μL; Italian Roth, Italy), DL-glyceraldehyde (10 mmol·L^-1, 50 μL; Sigma, U.S.), buffer phosphate (0.1 mol·L^-1), and selected concentrations of test compounds. The reaction was initiated by the addition of DL-glyceraldehyde as the substrate, and PBS was used as the blank control. The use of NAPDH, in parallel to AR activity, was monitored at room temperature for 10 min at 40 s intervals at 340 nm in an EnSpire™ Multimode Plate Reader. […] All assays were performed in triplicate.

[1] = biological target: inducible nitric oxide synthase (iNOS) (Homo sapiens, UniProt P35228); assay: iNOS inhibition assay (Nitric Oxide Synthase Assay Kit, NO production); type: biochemical; conditions: mean ± SD (n = 3); NA = no activity; read-out: IC50, inhibitory effect on iNOS activity
Description: iNOS produces NO by catalyzing a reaction involving L-Arg and oxygen. Its activity was assessed by monitoring NO production using a Nitric Oxide Synthase Assay Kit (Nanjing Jiancheng Bioengineering Institute, China), which was developed based on the method of Fröhlich et al.. […] All assays were performed in triplicate.

[2] = test system: human lens epithelial cells (HLECs; SRA 01/04); assay: Cell viability (MTT) of HLECs treated with D-galactose; type: cell-based; conditions: for protection of HLECs from apoptosis (concentration not given): D-galactose-induced, tested at 0.1, 0.5, 1.0 μg·mL^-1
Description: Human lens epithelial cells (HLECs; SRA 01/04) were obtained from Dr. Fu Shang, USDA HNRCA at Tufts University, Boston, MA, U.S. and Zhongshan Ophthalmic Center, Sun Yat-sen University, Guangzhou, P. R. China and cultured in minimal essential medium (MEM) supplemented with 20% fetal bovine serum (FBS) and a cocktail of Penicillin-Streptomycin at 37°C in a humid environment containing 5% CO2 [52]. Cells were harvested at 80% confluency by trypsinization, and then fresh culture medium was added to generate single-cell suspensions for use in cell viability assays. HLECs were then seeded in 96-well cell culture grade microplates at a density of 1 × 10^5·mL^-1. After 24 h of incubation, the cells were treated for 72 h with 250 mmol·L^-1 D-galactose with and without test compounds (0.1, 0.5, or 1.0 μg·mL^-1).
Cell viability was assessed using an MTT assay. After the treatments, 20 μL of 5 mg·mL^-1 MTT solution was added to each well, followed by incubation for 4 h at 37°C. The resulting formazan crystals were then dissolved in 150 μL DMSO and absorbance measured at 570 nm using an EnSpire™ Multimode Plate Reader. The results are presented as percentages of cell survival as compared to the untreated control group, and all assays were performed in triplicate.

[3] = read-out: IC50, inhibitory effect on AR activity
[4] = compound at 0.5 μg·mL^-1, 250 mmol·L^-1 D-galactose, 72 h
[5] = compound at 1.0 μg·mL^-1, 250 mmol·L^-1 D-galactose, 72 h
[6] = compound at 0.1 μg·mL^-1, 250 mmol·L^-1 D-galactose, 72 h

SMILES | IC50 (aldose reductase (AR); [3]) [µM] | melting point [°C] | IC50 [1] [µM] | protection of HLECs from apoptosis (concentration not given) [2] | also measured
COc1cc(CCc2cc(OC)cc(OC)c2)cc(OC)c1 [Compound 4, 1,2-bis(3,5-dimethoxyphenyl)ethane] | 347 ± 3.74 | 104.6 to 107.9 |  |  | 
Oc1cc(O)cc(CCc2cc(O)cc(O)c2)c1 [Compound 5, 5,5'-(ethane-1,2-diyl)dibenzene-1,3-diol5,5'-(ethane-1,2-diyl)dibenzene-1,3-diol] | 288.8 ± 2.16 | 245.9 to 248.1 | 432.6 ± 2.37 | protected HLECs from apoptosis | protection of HLECs from D-galactose-induced apoptosis [2, 4]: protected HLECs from apoptosis
CN(C)c1ccc(CCc2cc(O)cc(O)c2)cc1 [Compound 8] | 513.4 ± 2.33 | 152.5 to 154.1 |  | protected HLECs from apoptosis | protection of HLECs from D-galactose-induced apoptosis [2, 5]: protected HLECs from apoptosis
COc1cc(O)cc(CCc2cccc3ccccc23)c1 [Compound 10, 3-methoxy-5-(2-(naphthalen-1-yl)ethyl)phenol] | 31.2 ± 1.51 | 103.9 to 106.7 | 1189 ± 3.31 | protected HLECs from apoptosis | potency in AR inhibition relative to synthetic gigantol (compound 14f) (aldose reductase (AR); more potent than 14f): 9 fold; cell survival (viability) of HLECs against D-galactose-induced apoptosis ([2]; 250 mmol·L^-1 D-galactose, 72 h, MTT, compounds at 0.1, 0.5 or 1.0 μg·mL^-1, percentage of Con): 72.26%; protection of HLECs from D-galactose-induced apoptosis [2, 4]: protected HLECs from apoptosis
COc1cc(CCc2cc(OC)c(O)c(OC)c2)ccc1O [Compound 14a, 4-(4-hydroxy-3-methoxyphenethyl)-2,6-dimethoxyphenol] | 17.3 ± 1.72 |  |  |  | 
COc1cc(CCc2cccc(OC)c2O)ccc1O [Compound 14b, 4-(2-hydroxy-3-methoxyphenethyl)-2-methoxyphenol] | 126 ± 1.3 |  | 433.6 ± 4.23 | protected HLECs from apoptosis | protection of HLECs from D-galactose-induced apoptosis [2, 6]: protected HLECs from apoptosis
COc1cc(CCc2ccc(O)c(O)c2)ccc1O [Compound 14c, 4-(4-hydroxy-3-methoxyphenethyl)benzene-1,2-diol] | 534 ± 5.44 |  |  |  | 
COc1cc(CCc2ccc(O)c(OC)c2)cc(OC)c1 [Compound 14d, 4-(3,5-dimethoxyphenethyl)-2-methoxyphenol] | 39.2 ± 2.13 |  |  |  | 
COc1cc(CCc2cc(Cl)ccc2O)ccc1O [Compound 14e, 4-chloro-2-(4-hydroxy-3-methoxyphenethyl)phenol] | 21.8 ± 5.47 |  |  |  | 
COc1cc(O)cc(CCc2ccc(O)c(OC)c2)c1 [Compound 14f, 4-[2-(3-hydroxy-5-methoxyphenyl)ethyl]-2-methoxyphenol] | 176 ± 3.21 |  | 680.1 ± 3.28 |  | 
COc1ccc(CCNCc2ccc(O)cc2)cc1OC [Compound 17b, 4-((3,4-dimethoxyphenethylamino)methyl)phenol] |  | 116.7 to 118.6 |  |  | IC50 (aldose reductase (AR); IC50, inhibitory effect on AR activity): 174 ± 3.38 µM
COc1ccc(CNc2nc3ccccc3s2)c(O)c1 [Compound 17c, 2-((benzo[d]thiazol-2-ylamino)methyl)-5-methoxyphenol] | 243 ± 5.67 | 184.3 to 185.7 |  | protected HLECs from apoptosis | protection of HLECs from D-galactose-induced apoptosis [2, 6]: protected HLECs from apoptosis
Oc1cc(O)cc(CCCc2ccc(F)cc2)c1 [Compound 21, 5-(3-(4-fluorophenyl)propyl)benzene-1,3-diol] | 556.3 ± 4.37 |  |  |  | 
Cc1ccc(S(=O)(=O)Nc2ccc(O)cc2)cc1 [Compound 23, N-(4-hydroxyphenyl)-4-methylbenzenesulfonamide] | 5.02 ± 2.57 |  |  |  | 
COc1ccc(CCNC(=O)Cc2ccc(O)cc2)cc1OC [Compound 25, N-(3,4-dimethoxyphenethyl)-2-(4-hydroxyphenyl)acetamide] | 54.4 ± 2.39 | 151.7 to 153.2 |  |  | 
COc1cc(O)cc(CCc2ccc(O)c(OC)c2)c1 [Extractive gigantol, 4-[2-(3-hydroxy-5-methoxyphenyl)ethyl]-2-methoxyphenol, reference compound] | 2517 ± 10.3 |  | 32.2 ± 2.61 | protected HLECs from apoptosis | protection of HLECs from D-galactose-induced apoptosis [2, 5]: protected HLECs from apoptosis
